Measured values reported in the supplement of paper PMC10307832.

The cell lines below were run with CC(C)C[C@H](NC(=O)[C@H](CCc1ccccc1)NC(=O)CN1CCOCC1)C(=O)N[C@@H](Cc1ccccc1)C(=O)N[C@@H](CC(C)C)C(=O)[C@@]1(C)CO1 [Carfilzomib] + CCNC(=O)c1noc(-c2cc(C(C)C)c(O)cc2O)c1-c1ccc(CN2CCOCC2)cc1 [Luminespib] (partner 0.01 µM) (assay: relative viability (nuclei count vs DMSO), 5 days (fraction); higher = more cells survive). Settings: first compound 0.001 µM.
Procedure, shortened: (§1)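 Medians of duplicate plates are given as relative viability. That measure is the nuclei count in treated wells divided by the count in vehicle wells. Counts were taken on 4× images of lung cancer cell lines in 1536-well plates, 5 days after pin-tool dosing the day after seeding with one drug alone or a fixed anchor-drug dose plus five library-drug doses (not always all listed) in √10 steps.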

Cell Line	relative viability
LOU-NH91	0.344
LU99A	0.252
LXF-289	0.654
NCI-H23	0.211
NCI-H322M	0.719
NCI-H358	0.295
NCI-H441	0.303
NCI-H460	0.0383
NCI-H520	0.231
NCI-H596	1.16
NCI-H647	0.203
NCI-H661	0.93
NCI-H727	0.32
NCI-H838	0.27
NCI-H1355	0.723
NCI-H1395	0.594

Cell Line	relative viability
NCI-H1437	1.08
NCI-H1651	0.766
NCI-H1666	0.993
NCI-H1734	0.188
NCI-H1755	0.54
NCI-H1915	0.698
NCI-H1944	0.698
NCI-H1975	0.2
NCI-H1993	0.9
NCI-H2009	1.1
NCI-H2023	0.81
NCI-H2085	0.505
NCI-H2087	0.212
NCI-H2126	0.875
NCI-H2228	0.145
NCI-H2347	0.509

Same assay, conditions: first compound 0.003162 µM

Cell Line	relative viability
LOU-NH91	0.475
LU99A	0.221
LXF-289	0.761
NCI-H23	0.201
NCI-H322M	0.951
NCI-H358	0.456
NCI-H441	0.308
NCI-H460	0.0252
NCI-H520	0.227
NCI-H596	1.05
NCI-H647	0.143
NCI-H650	0.866
NCI-H661	0.967
NCI-H727	0.436
NCI-H838	0.255
NCI-H1355	0.791
NCI-H1395	0.783

Cell Line	relative viability
NCI-H1437	1.24
NCI-H1651	0.913
NCI-H1666	1.06
NCI-H1734	0.177
NCI-H1755	0.367
NCI-H1915	0.781
NCI-H1944	0.774
NCI-H1975	0.185
NCI-H1993	0.932
NCI-H2009	1.06
NCI-H2023	0.795
NCI-H2085	0.472
NCI-H2087	0.146
NCI-H2126	0.999
NCI-H2228	0.152
NCI-H2405	0.873

Same assay, conditions: first compound 0.01 µM

Cell Line	relative viability
LOU-NH91	0.344
LU99A	0.284
LXF-289	0.552
NCI-H23	0.201
NCI-H322M	0.849
NCI-H358	0.378
NCI-H441	0.318
NCI-H460	0.0369
NCI-H520	0.18
NCI-H596	1.14
NCI-H647	0.2
NCI-H650	0.636
NCI-H661	0.933
NCI-H727	0.294
NCI-H838	0.301
NCI-H1355	0.731
NCI-H1395	0.66

Cell Line	relative viability
NCI-H1437	1.11
NCI-H1651	0.916
NCI-H1666	1.11
NCI-H1734	0.235
NCI-H1755	0.481
NCI-H1915	0.766
NCI-H1944	0.707
NCI-H1975	0.261
NCI-H1993	0.983
NCI-H2009	1.03
NCI-H2023	0.626
NCI-H2085	0.359
NCI-H2087	0.215
NCI-H2126	0.938
NCI-H2228	0.161
NCI-H2347	0.266
NCI-H2405	0.851

Same assay, conditions: first compound 0.03162 µM

Cell Line	relative viability
LOU-NH91	0.287
LU99A	0.218
LXF-289	0.515
NCI-H23	0.188
NCI-H322M	0.713
NCI-H358	0.281
NCI-H441	0.208
NCI-H460	0.0311
NCI-H520	0.22
NCI-H596	0.354
NCI-H647	0.0957
NCI-H650	0.746
NCI-H661	0.866
NCI-H727	0.498
NCI-H838	0.19
NCI-H1355	0.606
NCI-H1395	0.561

Cell Line	relative viability
NCI-H1437	0.94
NCI-H1651	0.2
NCI-H1666	0.863
NCI-H1734	0.184
NCI-H1755	0.288
NCI-H1915	0.375
NCI-H1944	0.732
NCI-H1975	0.167
NCI-H1993	0.71
NCI-H2009	1.08
NCI-H2023	0.362
NCI-H2085	0.205
NCI-H2087	0.0619
NCI-H2126	0.744
NCI-H2228	0.123
NCI-H2347	0.346
NCI-H2405	0.759

Same assay, conditions: first compound 0.1 µM

Cell Line	relative viability
LOU-NH91	0.289
LU99A	0.191
LXF-289	0.0761
NCI-H23	0.184
NCI-H322M	0.291
NCI-H358	0.118
NCI-H441	0.173
NCI-H460	0.0158
NCI-H520	0.247
NCI-H596	0.195
NCI-H647	0.0461
NCI-H650	0.182
NCI-H661	0.291
NCI-H727	0.201
NCI-H838	0.13
NCI-H1355	0.238
NCI-H1395	0.309

Cell Line	relative viability
NCI-H1437	0.249
NCI-H1651	0.12
NCI-H1666	0.358
NCI-H1734	0.107
NCI-H1755	0.453
NCI-H1915	0.0837
NCI-H1944	0.205
NCI-H1975	0.16
NCI-H1993	0.462
NCI-H2009	0.121
NCI-H2023	0.0768
NCI-H2085	0.189
NCI-H2087	0.0448
NCI-H2126	0.465
NCI-H2228	0.144
NCI-H2347	0.201
NCI-H2405	0.32

What follows are cell lines tested with CC(C)C[C@H](NC(=O)[C@H](CCc1ccccc1)NC(=O)CN1CCOCC1)C(=O)N[C@@H](Cc1ccccc1)C(=O)N[C@@H](CC(C)C)C(=O)[C@@]1(C)CO1 [Carfilzomib] + C[C@]1(O)C[C@@H](c2nc(-c3ccc4ccc(-c5ccccc5)nc4c3)c3c(N)nccn32)C1 [Linsitinib] (partner 1 µM) in the same assay as above. Settings: first compound 0.001 µM.
Procedure, shortened: as §1

Cell Line	relative viability
LOU-NH91	1.01
LU99A	0.547
LXF-289	1
NCI-H23	0.537
NCI-H322M	0.806
NCI-H358	0.793
NCI-H441	0.569
NCI-H460	0.759
NCI-H520	1.01
NCI-H596	1.11
NCI-H647	0.942
NCI-H650	0.389
NCI-H661	0.501
NCI-H727	0.406
NCI-H838	1.02
NCI-H1355	0.795
NCI-H1395	1.28

Cell Line	relative viability
NCI-H1437	0.965
NCI-H1651	0.982
NCI-H1666	0.844
NCI-H1734	0.871
NCI-H1755	0.984
NCI-H1915	1.1
NCI-H1944	1.14
NCI-H1975	0.885
NCI-H1993	0.758
NCI-H2009	1.24
NCI-H2023	0.6
NCI-H2085	0.843
NCI-H2087	0.936
NCI-H2126	0.703
NCI-H2228	0.592
NCI-H2347	0.983

Same assay, conditions: first compound 0.003162 µM

Cell Line	relative viability
LOU-NH91	1.14
LU99A	0.514
LXF-289	1.03
NCI-H23	0.708
NCI-H322M	0.929
NCI-H358	0.977
NCI-H441	0.451
NCI-H460	0.891
NCI-H520	1.09
NCI-H596	1.03
NCI-H647	1.16
NCI-H650	1.19
NCI-H661	0.851
NCI-H727	0.249
NCI-H838	1.02
NCI-H1355	0.915
NCI-H1395	1.16

Cell Line	relative viability
NCI-H1437	1.08
NCI-H1651	0.965
NCI-H1666	0.796
NCI-H1734	0.986
NCI-H1755	0.986
NCI-H1915	1.1
NCI-H1944	1.24
NCI-H1975	0.896
NCI-H1993	0.773
NCI-H2009	1.28
NCI-H2023	0.768
NCI-H2085	0.835
NCI-H2087	1.05
NCI-H2126	0.793
NCI-H2228	1.04
NCI-H2347	1.06
NCI-H2405	1.19

Same assay, conditions: first compound 0.01 µM

Cell Line	relative viability
LOU-NH91	0.67
LU99A	0.508
LXF-289	0.982
NCI-H23	0.567
NCI-H322M	0.913
NCI-H358	0.717
NCI-H441	0.233
NCI-H460	0.719
NCI-H520	0.667
NCI-H596	1.16
NCI-H647	0.761
NCI-H650	0.958
NCI-H661	0.552
NCI-H727	0.301
NCI-H838	1.05
NCI-H1355	0.794
NCI-H1395	0.795

Cell Line	relative viability
NCI-H1437	0.984
NCI-H1651	0.487
NCI-H1666	0.79
NCI-H1734	0.855
NCI-H1755	0.982
NCI-H1915	1.05
NCI-H1944	1.17
NCI-H1975	0.562
NCI-H1993	0.712
NCI-H2009	1.22
NCI-H2023	0.653
NCI-H2085	0.778
NCI-H2087	0.851
NCI-H2126	0.695
NCI-H2228	0.524
NCI-H2347	0.962
NCI-H2405	1.01

Same assay, conditions: first compound 0.03162 µM

Cell Line	relative viability
LOU-NH91	0.334
LU99A	0.225
LXF-289	0.097
NCI-H23	0.206
NCI-H322M	0.99
NCI-H358	0.15
NCI-H441	0.104
NCI-H460	0.0155
NCI-H520	0.152
NCI-H596	0.628
NCI-H647	0.0416
NCI-H650	0.27
NCI-H661	0.424
NCI-H727	0.431
NCI-H838	0.676
NCI-H1355	0.487
NCI-H1395	1.4

Cell Line	relative viability
NCI-H1437	0.388
NCI-H1651	0.0962
NCI-H1666	0.545
NCI-H1734	0.715
NCI-H1755	0.97
NCI-H1915	0.655
NCI-H1944	1.2
NCI-H1975	0.129
NCI-H1993	0.607
NCI-H2009	0.494
NCI-H2023	0.607
NCI-H2085	0.418
NCI-H2087	0.108
NCI-H2126	0.764
NCI-H2228	0.156
NCI-H2347	0.785
NCI-H2405	0.389

Same assay, conditions: first compound 0.1 µM

Cell Line	relative viability
LOU-NH91	0.298
LU99A	0.159
